Measurements reported in US20070089183A1, “Size and/or growth engineering by modulation of the interaction between calmodulin, and brassinosteroid biosynthetic enzymes and orthologs therof” (Washington State University, priority 2005, published 2007).
Where no end group is shown, it is not given here.

Key:
DWF4 null mutant = assay: complementation of DWF4 null mutant or overexpression, plant growth; type: in vivo, Arabidopsis
Source text: For example, partial dwarf Arabidopsis plants were generated through manipulation of the DWF4 CaMBD regulatory domain.

[1] = test system: cM1, cM2, cM3 and the dwf1 mutant; assay: exogenous application of brassinolide to dwarf plants; type: in vivo, Arabidopsis; conditions: data not shown
Source text: To ensure a reliable comparison of the complementary effects of normal DWF1 and the three mutants, T2 plants with similar expression levels were compared (FIG. 3b-d). […] Seeds were produced in most of the slightly shorter siliques of cM1 plants (FIG. 3b, c). […] The dwarf phenotypes of cM1, cM2, cM3 and the dwf1 mutant were rescued by exogenous application of brassinolide (data not shown).

mutant having a L to V change at amino acid 28: DWF4 with L to V change at aa 28 within the N-terminal CaMBD (PSLLSLLLFLILVKRRNRKTRFNLP; listed as Arabidopsis thaliana)
plant growth phenotype (DWF4 null mutant; overexpression): enhanced growth

CC(C)[C@H](C)[C@@H](O)[C@H](O)[C@@H](C)[C@H]1CC[C@H]2[C@@H]3COC(=O)[C@H]4C[C@H](O)[C@H](O)C[C@]4(C)[C@H]3CC[C@]12C [brassinolide]
rescue of dwarf phenotypes [1]: rescued

DWF4 mutant having a L to D change at amino acid 21: DWF4 with L to D change at aa 21 within the N-terminal CaMBD (PSLLSDLLFLILLKRRNRKTRFNLP; not fully specified; listed as Arabidopsis thaliana)
plant growth phenotype (DWF4 null mutant; complementing a DWF4 null mutant): semi-dwarf
